These results are taken from ChEMBL document CHEMBL2385046, “Dihydrooxazines As Inhibitors of BACE-1 or BACE-2” (ACS Med Chem Lett, 2013).

In assay [1] the target is Beta-secretase 1 (Homo sapiens, UniProt P56817). Put plainly: Inhibition of recombinant human BACE1 extracellular domain expressed in baculovirus using Q-C(HS03)-lle-Asp-Leu-Ala-Val-Leu-Asp-HN-CH2-CH2-Mca as substrate incubated for 1 hr measured every 1 min for 15 mins by fluorescence assay.
Assay [2] addresses T1, Beta-secretase 2 (Homo sapiens, UniProt Q9Y5Z0).
T1 sequence (Q9Y5Z0 whole entry): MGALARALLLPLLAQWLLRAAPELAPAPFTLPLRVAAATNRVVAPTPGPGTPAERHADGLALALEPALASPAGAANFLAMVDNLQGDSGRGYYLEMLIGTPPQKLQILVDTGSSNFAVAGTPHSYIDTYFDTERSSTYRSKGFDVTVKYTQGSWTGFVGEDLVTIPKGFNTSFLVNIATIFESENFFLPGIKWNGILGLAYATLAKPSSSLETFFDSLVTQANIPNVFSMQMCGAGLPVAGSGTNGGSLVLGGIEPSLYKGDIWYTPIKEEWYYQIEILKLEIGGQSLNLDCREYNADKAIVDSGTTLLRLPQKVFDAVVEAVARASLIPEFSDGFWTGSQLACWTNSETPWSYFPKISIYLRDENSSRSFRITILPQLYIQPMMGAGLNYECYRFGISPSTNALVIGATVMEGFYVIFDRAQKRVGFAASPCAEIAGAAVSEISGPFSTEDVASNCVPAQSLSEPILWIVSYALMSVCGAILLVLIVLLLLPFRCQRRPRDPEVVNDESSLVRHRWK
Put plainly: Inhibition of recombinant human BACE2 extracellular domain expressed in baculovirus using Q-C(HS03)-lle-Asp-Leu-Ala-Val-Leu-Asp-HN-CH2-CH2-Mca as substrate incubated for 1 hr measured every 1 min for 15 mins by fluorescence assay.

In assay [3] the target is Beta-secretase (BACE) (Homo sapiens, UniProt Q9Y5Z0+P56817). Put plainly: Inhibition of BACE1/BACE2 (unknown origin) transfected in CHO cells assessed as release of amyloid beta (1 to 40) after 24 hrs by immunoassay. The class given is cell-based.
For assay [4], the system named is Rattus norvegicus. Put plainly: Antialzheimer activity in Sprague-Dawley rat assessed as lowering of amyloid beta level in forebrain at 10 mg/kg, po after 4 hrs relative to vehicle-treated control. The class given is functional.
Assay [5] relates to Rattus norvegicus. Put plainly: Antialzheimer activity in Sprague-Dawley rat assessed as lowering of amyloid beta level in CSF at 10 mg/kg, po after 4 hrs relative to vehicle-treated control. The class given is functional.

Chain of Beta-secretase 1 (P56817 whole entry, the tested form may be a part): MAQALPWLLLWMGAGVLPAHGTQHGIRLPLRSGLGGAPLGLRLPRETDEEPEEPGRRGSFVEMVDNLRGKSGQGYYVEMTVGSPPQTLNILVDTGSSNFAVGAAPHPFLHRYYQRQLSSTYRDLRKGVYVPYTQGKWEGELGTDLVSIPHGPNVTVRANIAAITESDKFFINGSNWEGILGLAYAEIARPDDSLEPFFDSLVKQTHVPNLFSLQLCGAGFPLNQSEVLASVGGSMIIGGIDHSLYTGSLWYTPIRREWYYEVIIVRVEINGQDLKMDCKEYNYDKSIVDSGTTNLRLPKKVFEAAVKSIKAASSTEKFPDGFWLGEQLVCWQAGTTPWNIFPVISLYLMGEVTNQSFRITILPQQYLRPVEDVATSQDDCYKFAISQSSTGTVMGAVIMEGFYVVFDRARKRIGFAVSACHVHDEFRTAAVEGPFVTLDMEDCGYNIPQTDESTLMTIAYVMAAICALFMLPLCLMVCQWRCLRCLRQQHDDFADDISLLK

Usually IC50 stands for the concentration that inhibits the measured activity by half. Turning to `C[C@]1(c2nc(NC(=O)c3ccc(C#N)cn3)ccc2F)N=C(N)OCC1(F)F`, the values for the IC50 in assay [1], in assay [2] and in assay [3] were 0.012 µM, 0.066 µM and 0.007 µM, respectively.
For the compound `C[C@]1(c2nc(NC(=O)c3ncc(C#N)cc3Cl)ccc2F)N=C(N)OCC1(F)F`, the Activity is reported as -67.1% in assay [4] and -70.7% in assay [5]. Besides, the IC50 in assay [3] worked out at 0.008 µM.
On to `CC1(C)OC(N)=N[C@](C)(c2nc(NC(=O)c3ncc(C#N)cc3Cl)ccc2F)C1(F)F`, for which the Activity is -20% in assay [4] and -35.3% in assay [5].
As to `C[C@]1(c2nc(NC(=O)c3ncc(C(F)(F)F)cc3Cl)ccc2F)N=C(N)OCC1(F)F`, the results for the Activity in assay [4] and in assay [5] were -63.6% and -67.9%, respectively.
In the case of `C[C@]1(c2nc(NC(=O)c3ncc(Cl)cc3Cl)ccc2F)N=C(N)OCC1(F)F`, the IC50 in assay [3] stood at 0.012 µM.
Regarding `C[C@]1(c2nc(NC(=O)c3ncc(OCC(F)F)nc3N)ccc2F)N=C(N)OCC1(F)F`, the half-inhibitory concentration (IC50) in assay [3] stood at 0.44 µM.
Consider `C[C@]1(c2nc(NC(=O)c3nn(C(F)F)cc3Cl)ccc2F)N=C(N)OCC1(F)F`, for which the Activity was -46.6% in assay [4] and -55.2% in assay [5]. The IC50 in assay [3] was found to be 0.013 µM.
